Data set [1] concerns ABCG2. To be noted: cited from earlier work.
The conditions of data set [2]: human; GF120918 oral; ref [13],[21],[35],[45]–[48] (GF120918), [26],[50],[51] (Telatinib); cited from earlier work.
Data set [3] concerns ABCG2-overexpressing tumors. To be noted: cited from earlier work; for In vivo Impact on Tumor growth: ref per compound in Table 2.
The conditions of data set [4]: oral; ref per compound in Table 2; cited from earlier work.
On the set-up of data set [5]: method as in PMID 23150210. Conditions: P.O.; ref [25]; cited from earlier work.
Data set [6] is described as follows: MBL-II-141 oral absorption study (force-feeding versus IP). The data set is classed as in vivo, mouse. The method, then: The availability of MBL-II-141 was evaluated by force-feeding (n = 4), and compared to intraperitoneal injection (n = 4). CD1 mice were treated with 10 mg/kg of MBL-II-141. After 4 h of treatment, total blood was collected from animals treated with heparin. Samples were stored at −80°C until quantification.
Assay accuracy was in the range of 91–108%. […] Results in tissues were normalized to cellular protein content.

The next data set concerns SCID mice. As to the kind of experiment: MBL-II-141 tolerance assay. The class given is in vivo.
A short description of data set [7]: Solubility for experimental formulation. The class given is physicochemical. The method, then:
The experimental formulation of MBL-II-141 was determined according to its solubility properties.

In another data set the test system is ABCC1. Conditions: mitoxantrone or calcein as substrates; cited from earlier work.
The test system of the next data set is HEK293 cells. Conditions: at 100 μM; cited from earlier work.
The test system of another data set is HEK293-ABCG2 cells. To be noted: at 100 μM; cited from earlier work.
A further data set has as its system HEK293-pcDNA3.1 cells. Conditions: at 100 μM; cited from earlier work.
Data set [8] relates to ABCG2. Conditions: cited from earlier work. This is another data set of the same source.
The subject of another data set is HEK-ABCG2 xenografts. As to the kind of experiment: Chemosensitization of just-established ABCG2-positive tumors.
The next data set concerns HEK-pcDNA3.1 xenografts. The experiment in a line: Chemosensitization study, just-established ABCG2-negative tumors.
The subject of another data set is HEK293 ABCG2 xenografts. The experiment in a line: Chemosensitization of well-established (8 mm) ABCG2-positive tumors. To be noted: for slope of tumor growth: solvents 61 ± 3.
Data set [9] in a line: Pharmacokinetic study of MBL-II-141, CPT-11 and SN-38 (blood, liver, brain; LC-MS/MS).
Procedure: In order to achieve possible cumulative effects, reiterated administrations (two or three) were carried out with a 4 h time interval between administrations. Blood samples were collected at either 1 h or 4 h after the last injection.
Total blood samples were collected using dried heparinized syringes, avoiding modification of samples. Blood and plasma were stored at −80°C. […] Tissues were crushed using a dried cold system.
Both assays were performed on a C18 column HypersilGold, (ThermoElectron), 3.0 μm, (100 mm × 2.1 mm i.d.). The mass spectrometry analysis was performed in positive ion mode with electrospray source. […] A volume of 50 μL of whole blood or tissue solution was introduced into a conic centrifuge and 50 μL of solution of the internal standard and 300 μL of cold acetonitrile were added. The sample was mixed and centrifuged for 10 min at 13000 g at 5°C. […] The residues were resuspended in 100 μL of mobile phase and 10 μL were injected into the HPLC device. […] When the concentration was over the upper standard concentration, a dilution of the sample was performed using blank whole blood or appropriate tissues. Peak area ratios of compound to the respective internal standard measured at each nominal concentration were used to construct weighted (1/concentration) least-square linear regression curves. […] Results in tissues were normalized to cellular protein content. Results in tissues were normalized to cellular protein content (C1600 Abott technology).
Setting [10] is: MBL-II-141 alone 10 mg/kg + PBS.
Setting [11] is: combination MBL-II-141 10 mg/kg + CPT-11 20 mg/kg.
Where [12] appears, read: MBL-II-141 10 mg/kg IP, SCID mice.

Here are results for three compounds from PMC4323000 (Oncotarget, 2015).

A word on the pIC50: it is the IC50 on a negative log10 scale, so that one unit is a factor of ten.

pIC50: −log10 of the molar value. Where two headings read alike, the source gives them in different places.

Procedure for HEK-ABCG2 xenografts: (§1) 4.10^6 HEK-pcDNA3.1 or HEK-ABCG2 cells were sub-cutaneously injected into one flank of each SCID mouse, in solution with 50% matrigel. After the apparition of most tumors, mice were randomly distributed into 4 groups of 20 animals (10 ABCG2 negative and 10 ABCG2-positive tumors). […] Two independent injections were carried out per mouse.
(§2) Treatments were intraperitoneally administered three times a week until mice sacrifice. […] Finally, mice were sacrificed when the tumor diameter reached 17 mm.
(§3) Growth models. Tumor growth curves were modeled with GraphPad© Software. Gaussian distribution models were obtained according to the equation Y = Amplitude*exp (−0.5*((X-Mean)/SD)^2). The amplitude was the height of the center of the distribution in Y units. Mean was the X value at the center of the distribution. SD was a measure of the width of the distribution, in the same units as X. Another model was applied for sum of two Gaussian distributions with Y = one + two (One = Amplitude 1*exp(−0.5*((X-Mean1)/SD1)^2) and Two = Amplitude 2*exp(−0.5*((X-Mean2)/SD2)^2)). Amplitudes were the heights of the center of the distribution in Y units. Means were the X values at the center of the two distributions. SDs were measures of the widths of the distributions, in the same units as X.
(§4) Paired t-test. The statistical test used was the paired t-test. It was applied for all data of growth tumor experiments and pharmacokinetics data.
Procedure for HEK-pcDNA3.1 xenografts: as §1, §2, §3, §4
Source text for HEK293 ABCG2 xenografts: 1.10^6 HEK ABCG2 cells were sub-cutaneously injected into one flank of each SCID mouse, in solution with 30% matrigel. […] Each group contained 10 mice. The same protocol of treatment and follow-up were applied.
Tumor growth curves were modeled with GraphPad© Software. Gaussian distribution models were obtained according to the equation Y = Amplitude*exp (−0.5*((X-Mean)/SD)^2). The amplitude was the height of the center of the distribution in Y units. Mean was the X value at the center of the distribution. SD was a measure of the width of the distribution, in the same units as X. Another model was applied for sum of two Gaussian distributions with Y = one + two (One = Amplitude 1*exp(−0.5*((X-Mean1)/SD1)^2) and Two = Amplitude 2*exp(−0.5*((X-Mean2)/SD2)^2)). Amplitudes were the heights of the center of the distribution in Y units. Means were the X values at the center of the two distributions. SDs were measures of the widths of the distributions, in the same units as X.
The statistical test used was the paired t-test. It was applied for all data of growth tumor experiments and pharmacokinetics data.

`CNC(=O)c1cc(COc2nnc(Nc3ccc(Cl)cc3)c3ccoc23)ccn1` [Telatinib]: in the data set on ABCG2 [1] (ref per compound in Table 2), the “In vitro ABCG2 Specificity” value was “No”. In addition, the “In vivo Toxicity, Chronic” value in [2] is given as >1 500 mg (human). Also, in [3], the “In vivo Impact on Tumor growth” value is given as “Yes”. Moreover, the “effect on ABCG2-overexpressing tumors” value in [3] (telatinib 15 mg/kg in combination with doxorubicin […], xenografted nude mouse model) was “significantly decrease the growth rate and tumor size”. In [4], the “In vivo Toxicity, Acute” value is on record as greater than 15 mg/kg oral.

On to `CNC(=O)c1cc(Oc2ccc(NC(=O)Nc3ccc(Cl)c(C(F)(F)F)c3)cc2)ccn1` [Sorafenib], for which the “In vitro ABCG2 Specificity” value in the data set on ABCG2 [1] (ref per compound in Table 2) is “No”. Besides, the “In vivo Toxicity, Chronic” value in [5] is greater than 25 mg/kg P.O. Also, the “In vivo Impact on Tumor growth” value in data set [3] is recorded as “Yes”. Moreover, the “In vivo Toxicity, Acute” value in [4] is given as greater than 25 mg/kg oral.

For the compound `COc1ccc2[nH]cc(CCNC(=O)c3cc(=O)c4c(OCc5ccc(Br)cc5)cccc4o3)c2c1` [MBL-II-141, 5-(4-bromobenzyloxy)-2-(2-(5-methoxyindolyl)ethyl-1-carbonyl)-4H-chromen-4-one], the “blood level at 4 h under force-feeding in comparison to IP route (lower)” value in data set [6] (10 mg/kg, difference not significant) is given as “approximately 2 fold”. Moreover, the “In vivo Toxicity, Acute” value in data set [6] (oral (force-feeding), mice) is on record as greater than 10 mg/kg oral; in the data set on SCID mice (I.P., mice), greater than 50 mg/kg I.P. Further, the “acute toxicity in pilot study” value in the data set with SCID mice (10 mg/kg per mouse) is “no acute toxicity”. Further, the “finding in the peritoneal cavity” value with SCID mice (50 mg/kg 3 times a week for 1 month) is “slight deposit”. For the same compound, the “macroscopic analysis of organs (brain, heart, lungs, kidneys, liver and spleen)” value in the data set on SCID mice (10, 30 or 50 mg/kg with CPT-11 20 mg/kg) is listed as “no apparent lesions”. Further, the “behavior (physical activity, appearance)” value in the data set with SCID mice (IP 10, 30 or 50 mg/kg in combination with CPT-11 20 mg/kg) is given as “did not show any modification in behavior”. For the same compound, in the data set with SCID mice (at 50 mg/kg, preliminary data), the tolerance entry is “well tolerated”. Further, in the data set on SCID mice (regardless of the administered dose of MBL-II-141 (10, 30, 50 mg/kg)), the “complete blood count proportion” value is given as “unchanged”. Besides, in the data set on SCID mice (reiterated administrations), the “safety on reiterated administrations” value was “without any associated animal death or loss of weight”. In data set [7], the “maximal solubility in DMSO” value was 250 mg/mL. The “effect on ABCC1-mediated transport” value with ABCC1 is reported as “without any effect”. Besides, the “cell death of HEK293 cells” value in the data set on HEK293 cells is on record as “less than 25%”. Further, the cell survival in the data set with HEK293-ABCG2 cells is 60%; in the data set with HEK293-pcDNA3.1 cells, 75%. The “In vitro ABCG2 Specificity” value with ABCG2 [1] (MBL-II-141) is “Yes”. Moreover, in the data set with ABCG2 [8], the “type of ABCG2 inhibition towards mitoxantrone” value is recorded as “non-competitive”. In addition, in the data set on ABCG2 [8] (read-out: IC50, inhibition of ABCG2 (mitoxantrone efflux), substrate mitoxantrone), the negative-log IC50 (pIC50) was 6.96. Moreover, the “Mean of differences between tumor growth curves, vehicles versus MBL-II-141 alone” value in the data set with HEK-ABCG2 xenografts (HEK-ABCG2, paired t-test P (two tailed) 0.015, 95% CI 16.93 to 138.1) worked out at 77.51; with HEK-pcDNA3.1 xenografts (HEK-pcDNA3.1, paired t-test P (two tailed) 0.0006, 95% CI 171.0 to 512.9), 342. In addition, the “ABCG2-positive tumors whose growth was completely blocked” value in the data set with HEK-ABCG2 xenografts (MBL-II-141 10 mg/kg + CPT-11 20 mg/kg IP three times a week, freshly implanted tumors, SCID mice) is reported as 90%. Also, in the data set with HEK-ABCG2 xenografts (MBL-II-141 10 mg/kg + CPT-11 20 mg/kg, even 40 days after end of treatment), the “survival rate of mice bearing ABCG2-positive tumors” value amounted to 90%. The “inhibitory effect on growth of ABCG2-positive tumors” value with HEK-ABCG2 xenografts (setting [10]) is listed as “not observed”. Besides, the “In vivo Impact on Tumor growth” value in the data set on HEK-ABCG2 xenografts (with CPT-11, ABCG2-positive xenografts) is reported as “Yes”. Also, the “effect on growth of ABCG2-negative tumors” value in the data set on HEK-pcDNA3.1 xenografts (setting [10]) was “slight inhibitory effect”. Besides, the mice survival entry in the data set with HEK293 ABCG2 xenografts (setting [11]) is “markedly increased”. For the same compound, in the data set with HEK293 ABCG2 xenografts (setting [11]), the “time at which tumors reached maximal size versus CPT-11 alone” value was “about two weeks later”. Also, the “slope of tumor growth” value came to 41 ± 1 mm^3/day in the data set on HEK293 ABCG2 xenografts (setting [11]) and 68 ± 3 mm^3/day with HEK293 ABCG2 xenografts (single agent (MBL-II-141 10 mg/kg or CPT-11 20 mg/kg) three times a week). In the data set on HEK293 ABCG2 xenografts (paired t-test P (two tailed) < 0.0001, 95% CI 54.71 to 135.0), the “Mean of differences between tumor growth curves, Solvents versus MBL-II-141” value stood at 94.84. The “Mean of differences between tumor growth curves, CPT-11 versus MBL-II-141 + CPT-11” value in the data set on HEK293 ABCG2 xenografts (paired t-test P (two tailed) < 0.0001, 95% CI 162.2 to 329.4) amounted to 245.8. Also, the “Mean of differences between tumor growth curves, Solvents versus MBL-II-141 + CPT-11” value in the data set with HEK293 ABCG2 xenografts (paired t-test P (two tailed) < 0.0001, 95% CI 177.3 to 460.0) was 318.6. Moreover, the “Mean of differences between tumor growth curves, MBL-II-141 versus MBL-II-141 + CPT-11” value in the data set with HEK293 ABCG2 xenografts (paired t-test P (two tailed) < 0.0001, 95% CI 240.1 to 562.7) was 401.4. In data set [9] (10 mg/kg IP, injections separated by 4 h, blood 1 h or 4 h after last injection), the “blood level after the third injection versus one or two injection(s)” value is on record as “slight increase”. The “Brain/Plasma ratio, fold-change induced by the combination treatment” value in [9] (30 min) was 1.1 fold-change; in data set [9] (60 min), 0.3 fold-change; in data set [9] (120 min), 0.4 fold-change; in [9] (240 min) it was 3.0 fold-change. Moreover, the “Liver/Plasma ratio, fold-change induced by the combination treatment” value in [9] (30 min) stood at 2.5 fold-change; in data set [9] (60 min), 0.8 fold-change; in data set [9] (120 min), 1.1 fold-change; in data set [9] (240 min), 3.0 fold-change. In addition, the “level in total blood at 6 h” value in data set [9] (setting [12]) is given as “below the detection limit”. The “time of highest level in total blood” value in data set [9] (setting [12]) turned out to be 0.5 h. Moreover, in [9] (MBL-II-141 10 mg/kg IP, SCID mice, 10 mg/kg), the “distribution into the brain” value is “low, but still detectable”. Moreover, in [9] (of CPT-11, SCID mice), the “In vivo Impact on Pharmacokinetics” value is on record as “CPT-11: Yes”. The “Mean of differences in Brain levels, compound alone versus CPT-11 + MBL-II-141” value in data set [9] (paired t-test over time, P (two tailed): CPT-11 0.0416, MBL-II-141 0.1059) worked out at 38.53. The “Mean of differences in Blood levels, compound alone versus CPT-11 + MBL-II-141” value in data set [9] (paired t-test over time, P (two tailed): CPT-11 0.3616, SN-38 0.0299, MBL-II-141 0.1555) is recorded as 122.0. The “Mean of differences in Liver levels, compound alone versus CPT-11 + MBL-II-141” value in [9] (paired t-test over time, P (two tailed): CPT-11 0.6878, SN-38 0.1727, MBL-II-141 0.1046) is listed as -39.78.
